PMC11742723, “The clinical-stage drug BTZ-043 accumulates in murine tuberculosis lesions and efficiently acts against Mycobacterium tuberculosis” (Nature Communications, 2025)
Several values for one entry are separate records, joined by “and”; a condition that tells them apart may be missing. Equal values may be shown once.

Key:
[1] = system: Mtb H37Rv; assay: BTZ-043 dose escalation study in Mtb-infected BALB/c mice (pulmonary CFU); type: in vivo, Mycobacterium tuberculosis; settings: 25 mg/kg INH, individual female mice
[2] = system: Mtb H37Rv; assay: BTZ-043 dose-fractionation study in Mtb-infected BALB/c mice (lung CFU); type: in vivo, Mycobacterium tuberculosis; settings: 10 mg /kg INH; 6 weeks of treatment; individual female mice
[3] = system: Caco-2; settings: cited from earlier work
[4] = cited from earlier work
[5] = In vitro permeability assay in Caco-2 monolayers; settings: human; for Papp at 120 min, 25 µg/mL / Papp at 120 min, 40 µg/mL: Caco-2, Mean Papp, n=3; for Papp at 120 min, 25 µg/mL: Caco-2, 25 µg/mL; for Papp at 120 min, 40 µg/mL: Caco-2, 40 µg/mL
[6] = system: Caco-2 cell monolayers; assay: In vitro permeability assay in Caco-2 monolayers; settings: for Concentration: replicates 1-3

**Q.** What does the source list for `NNC(=O)c1ccncc1` [INH, isoniazid, reference compound]?
**A.** pulmonary CFU counts / mouse ([1]; 4 weeks of treatment): 306600 CFU counts / mouse and 698438 CFU counts / mouse and 504563 CFU counts / mouse and 274286 CFU counts / mouse and 298200 CFU counts / mouse and 595125 CFU counts / mouse; pulmonary CFU counts / mouse ([1]; 6 weeks of treatment): 135000 CFU counts / mouse and 142313 CFU counts / mouse and 207692 CFU counts / mouse and 103500 CFU counts / mouse and 144000 CFU counts / mouse and 145313 CFU counts / mouse; pulmonary CFU counts / mouse ([1]; 8 weeks of treatment): 40714 CFU counts / mouse and 48086 CFU counts / mouse and 100000 CFU counts / mouse and 45000 CFU counts / mouse and 32560 CFU counts / mouse and 144000 CFU counts / mouse; pulmonary CFU counts / mouse [2]: 251 CFU counts / mouse (2×) and 876 CFU counts / mouse and 1751 CFU counts / mouse

**Q.** Which results are given for `NC(=O)c1cnccn1` [PZA, pyrazinamide]?
**A.** Papp (AB) [3]: 70.4 10^−6 cm/s; Papp (BA) [3]: 37.1 10^−6 cm/s; penetration into centrally necrotizing granulomas [4]: readily penetrates centrally necrotizing granulomas; Papp A→B at 120 min ([5]; Caco-2): 49.7 to 61 ×10⁻⁶ cm/s; Papp B→A at 120 min ([5]; Caco-2): 35 to 39.2 ×10⁻⁶ cm/s; efflux ratio at 120 min, 25 µg/mL ([5]; Caco-2): 0.79; efflux ratio at 120 min, 40 µg/mL ([5]; Caco-2): 0.57; Papp at 120 min, 25 µg/mL ([5]; direction AB): 49.7 ×10⁻⁶ cm/s; Papp at 120 min, 25 µg/mL ([5]; direction BA): 39.2 ×10⁻⁶ cm/s; Papp at 120 min, 40 µg/mL ([5]; direction AB): 61 ×10⁻⁶ cm/s; Papp at 120 min, 40 µg/mL ([5]; direction BA): 35 ×10⁻⁶ cm/s; permeability classification ([6]; Caco-2): highly permeable drug; Concentration ([6]; PZA 25 μg mL^-1, direction AB, time 0 min): 0 ng/mL; Concentration ([6]; PZA 25 μg mL^-1, direction AB, time 10 min): 0 ng/mL and 525.202 ng/mL; Concentration ([6]; PZA 25 μg mL^-1, direction AB, time 30 min): 1333.17 ng/mL and 1096.85 ng/mL and 1005.65 ng/mL; Concentration ([6]; PZA 25 μg mL^-1, direction AB, time 60 min): 3321.25 ng/mL and 3452.37 ng/mL and 3341.43 ng/mL; Concentration ([6]; PZA 25 μg mL^-1, direction AB, time 90 min): 3158.86 ng/mL and 3253.04 ng/mL and 3097.63 ng/mL; Concentration ([6]; PZA 25 μg mL^-1, direction AB, time 120 min): 4030.2 ng/mL and 4138.52 ng/mL and 3490.73 ng/mL; Concentration ([6]; PZA 25 μg mL^-1, direction BA, time 0 min): 0 ng/mL; Concentration ([6]; PZA 25 μg mL^-1, direction BA, time 10 min): 1503.99 ng/mL and 1317.17 ng/mL and 1941.63 ng/mL; Concentration ([6]; PZA 25 μg mL^-1, direction BA, time 30 min): 5734.38 ng/mL and 4427.73 ng/mL and 5446.92 ng/mL; Concentration ([6]; PZA 25 μg mL^-1, direction BA, time 60 min): 9786.14 ng/mL and 7994.45 ng/mL and 7975.63 ng/mL; Concentration ([6]; PZA 25 μg mL^-1, direction BA, time 90 min): 11259.4 ng/mL and 8631.13 ng/mL and 9901.08 ng/mL; Concentration ([6]; PZA 25 μg mL^-1, direction BA, time 120 min): 13405.8 ng/mL and 11006.7 ng/mL and 13558.7 ng/mL; Concentration ([6]; PZA 40 μg mL^-1, direction AB, time 0 min): 0 ng/mL; Concentration ([6]; PZA 40 μg mL^-1, direction AB, time 10 min): 1048.64 ng/mL and 287.742 ng/mL and 2327.22 ng/mL; Concentration ([6]; PZA 40 μg mL^-1, direction AB, time 30 min): 1430.93 ng/mL and 3432 ng/mL and 3592.69 ng/mL; Concentration ([6]; PZA 40 μg mL^-1, direction AB, time 60 min): 4853.22 ng/mL and 4349.7 ng/mL and 4275.28 ng/mL; Concentration ([6]; PZA 40 μg mL^-1, direction AB, time 90 min): 5770.39 ng/mL and 5601.9 ng/mL and 5436.88 ng/mL; Concentration ([6]; PZA 40 μg mL^-1, direction AB, time 120 min): 4977.56 ng/mL and 4113.08 ng/mL and 4440.77 ng/mL; Concentration ([6]; PZA 40 μg mL^-1, direction BA, time 0 min): 4045.86 ng/mL and 115.41 ng/mL and 340.993 ng/mL; Concentration ([6]; PZA 40 μg mL^-1, direction BA, time 10 min): 3969.46 ng/mL and 1843.77 ng/mL and 2669.48 ng/mL; Concentration ([6]; PZA 40 μg mL^-1, direction BA, time 30 min): 5459.68 ng/mL and 4472.97 ng/mL and 5086.94 ng/mL; Concentration ([6]; PZA 40 μg mL^-1, direction BA, time 60 min): 9734.39 ng/mL and 8339.56 ng/mL and 9591.97 ng/mL; Concentration ([6]; PZA 40 μg mL^-1, direction BA, time 90 min): 11611.6 ng/mL and 10257.1 ng/mL and 12377.9 ng/mL; Concentration ([6]; PZA 40 μg mL^-1, direction BA, time 120 min): 12904.2 ng/mL and 13264.5 ng/mL and 15050 ng/mL; Calculated Amount ([6]; PZA (25 µg mL^-1), direction AB, compartment api, time 0 min): 20066.1 and 22292.2 and 24678; Calculated Amount ([6]; PZA (25 µg mL^-1), direction AB, compartment api, time 120 min): 10717.9 and 11820.9 and 10695.5; Calculated Amount ([6]; PZA (25 µg mL^-1), direction AB, compartment baso, time 0 min): 0; Calculated Amount ([6]; PZA (25 µg mL^-1), direction AB, compartment baso, time 30 min): 1096.85 and 1005.65; Calculated Amount ([6]; PZA (25 µg mL^-1), direction AB, compartment baso, time 60 min): 3321.25 and 3452.37 and 3341.43; Calculated Amount ([6]; PZA (25 µg mL^-1), direction AB, compartment baso, time 90 min): 3158.86 and 3253.04 and 3097.63; Calculated Amount ([6]; PZA (25 µg mL^-1), direction AB, compartment baso, time 120 min): 4030.2 and 4138.52 and 3490.73; Calculated Amount ([6]; PZA (25 µg mL^-1), direction BA, compartment api, time 0 min): 0; Calculated Amount ([6]; PZA (25 µg mL^-1), direction BA, compartment api, time 10 min): 1503.99 and 1317.17 and 1941.63; Calculated Amount ([6]; PZA (25 µg mL^-1), direction BA, compartment api, time 30 min): 5734.38 and 4427.73 and 5446.92; Calculated Amount ([6]; PZA (25 µg mL^-1), direction BA, compartment api, time 60 min): 9786.14 and 7994.45 and 7975.63; Calculated Amount ([6]; PZA (25 µg mL^-1), direction BA, compartment api, time 90 min): 11259.4 and 8631.13 and 9901.08; Calculated Amount ([6]; PZA (25 µg mL^-1), direction BA, compartment api, time 120 min): 13405.8 and 11006.7 and 13558.7; Calculated Amount ([6]; PZA (25 µg mL^-1), direction BA, compartment baso, time 120 min): 22133.4; Calculated Amount ([6]; PZA (40 µg mL^-1), direction AB, compartment api, time 120 min): 15162.6 and 15570.7 and 14836.3; Calculated Amount ([6]; PZA (40 µg mL^-1), direction BA, compartment baso, time 120 min): 27713.4 and 29783.3 and 27759.2

**Q.** With `CO[C@H]1/C=C/O[C@@]2(C)Oc3c(C)c(O)c4c(O)c(c(/C=N/N5CCN(C)CC5)c(O)c4c3C2=O)NC(=O)/C(C)=C\C=C\[C@H](C)[C@H](O)[C@@H](C)[C@@H](O)[C@@H](C)[C@H](OC(C)=O)[C@@H]1C` [RIF, rifampicin] as the molecule, how does the “penetration into the cellular rim and necrotic center” value [4] read?
**A.** The value was “at least some penetration”.

**Q.** Which “distribution in centrally necrotizing lesions by MALDI imaging” value ([4]; in vivo) does the source give for `CC(C)=CCC/C(C)=C/CNCCNC1C2CC3CC(C2)CC1C3` (stereo not shown) [SQ109] here?
**A.** Its value is “strong signals in the cellular rim of centrally necrotizing lesions but only poor diffusion into the avascular caseum”.

**Q.** Which results are given for `CC(C)/N=c1\cc2n(-c3ccc(Cl)cc3)c3ccccc3nc-2cc1Nc1ccc(Cl)cc1` [clofazimine]?
**A.** Papp (AB) [3]: 0.17 10^−6 cm/s; Papp (BA) [3]: 0.18 10^−6 cm/s; penetration into centrally necrotizing granulomas [4]: only very limited penetration
